Measurements: ChEMBL document CHEMBL1629479, “Old phenothiazine and dibenzothiadiazepine derivatives for tomorrow's neuroprotective therapies against neurodegenerative diseases” (Eur J Med Chem, 2010)

Tests used:
[1] = test system: SH-SY5Y; assay: Neuroprotective activity against H2O2-induced oxidative stress in human SH-SY5Y cells assessed as LDH release at 100 uM after 24 hrs by UV-vis spectroscopy; assay type: functional
[2] = test system: SH-SY5Y; assay: Neuroprotective activity against H2O2-induced oxidative stress in human SH-SY5Y cells assessed as LDH release at 3 uM after 24 hrs by UV-vis spectroscopy; assay type: functional
[3] = test system: SH-SY5Y; assay: Neuroprotective activity against rotenone and oligomycin-induced mitochondrial oxidative stress in human SH-SY5Y cells assessed as LDH release at 3 uM after 24 hrs using DCFH-DA fluorescent dye; assay type: functional
[4] = Permeability of the compound by PAMPA at pH 7.4; assay type: ADME; conditions: read-out: permeability
[5] = test system: SH-SY5Y; assay: Neuroprotective activity against H2O2-induced oxidative stress in human SH-SY5Y cells assessed as LDH release at 30 uM after 24 hrs by UV-vis spectroscopy; assay type: functional
[6] = test system: SH-SY5Y; assay: Neuroprotective activity against H2O2-induced oxidative stress in human SH-SY5Y cells assessed as LDH release at 1 uM after 24 hrs by UV-vis spectroscopy; assay type: functional
[7] = test system: SH-SY5Y; assay: Cytotoxicity against human SH-SY5Y cells assessed as LDH release at 100 uM after 24 hrs by UV-vis spectroscopy; assay type: cell-based
[8] = test system: SH-SY5Y; assay: Neuroprotective activity against rotenone and oligomycin-induced mitochondrial oxidative stress in human SH-SY5Y cells assessed as LDH release at 30 uM after 24 hrs using DCFH-DA fluorescent dye; assay type: functional
[9] = test system: SH-SY5Y; assay: Neuroprotective activity against H2O2-induced oxidative stress in human SH-SY5Y cells assessed as LDH release at 60 uM after 24 hrs by UV-vis spectroscopy; assay type: functional
[10] = biological target: T1, Acetylcholinesterase (Bos taurus, UniProt P23795)
T1 sequence (P23795 whole entry): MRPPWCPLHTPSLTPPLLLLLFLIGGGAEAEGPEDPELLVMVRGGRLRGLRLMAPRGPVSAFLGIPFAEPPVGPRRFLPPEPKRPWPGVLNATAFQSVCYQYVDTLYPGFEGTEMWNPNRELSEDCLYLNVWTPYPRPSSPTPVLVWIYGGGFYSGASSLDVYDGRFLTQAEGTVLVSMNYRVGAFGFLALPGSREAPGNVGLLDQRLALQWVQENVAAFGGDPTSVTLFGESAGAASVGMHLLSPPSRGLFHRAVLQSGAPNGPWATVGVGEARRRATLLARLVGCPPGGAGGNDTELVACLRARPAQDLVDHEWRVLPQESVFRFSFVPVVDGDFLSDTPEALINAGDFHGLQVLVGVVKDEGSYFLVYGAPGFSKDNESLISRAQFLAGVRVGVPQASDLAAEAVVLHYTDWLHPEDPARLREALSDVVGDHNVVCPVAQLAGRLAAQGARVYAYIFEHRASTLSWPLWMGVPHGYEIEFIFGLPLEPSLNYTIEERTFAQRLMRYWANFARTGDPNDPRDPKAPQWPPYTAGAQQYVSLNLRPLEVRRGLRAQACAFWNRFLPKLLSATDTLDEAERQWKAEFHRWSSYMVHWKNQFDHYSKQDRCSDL
Description: Inhibition of bovine erythrocyte AChE by Ellman's method

[11] = test system: SH-SY5Y; assay: Neuroprotective activity against H2O2-induced oxidative stress in human SH-SY5Y cells assessed as LDH release at 30 uM after 24 hrs by UV-vis spectroscopy in presence of calcium channel blocker nimodipine; assay type: functional
[12] = test system: SH-SY5Y; assay: Neuroprotective activity against rotenone and oligomycin-induced mitochondrial oxidative stress in human SH-SY5Y cells assessed as LDH release at 10 uM after 24 hrs using DCFH-DA fluorescent dye; assay type: functional
[13] = biological target: Cholinesterase (Equus caballus, UniProt P81908); assay: Inhibition of equine serum BuChE by Ellman's method
[14] = test system: SH-SY5Y; assay: Neuroprotective activity against H2O2-induced oxidative stress in human SH-SY5Y cells assessed as LDH release at 100 uM after 24 hrs by UV-vis spectroscopy in presence of calcium channel blocker nimodipine; assay type: functional

Chain of Cholinesterase (P81908 whole entry): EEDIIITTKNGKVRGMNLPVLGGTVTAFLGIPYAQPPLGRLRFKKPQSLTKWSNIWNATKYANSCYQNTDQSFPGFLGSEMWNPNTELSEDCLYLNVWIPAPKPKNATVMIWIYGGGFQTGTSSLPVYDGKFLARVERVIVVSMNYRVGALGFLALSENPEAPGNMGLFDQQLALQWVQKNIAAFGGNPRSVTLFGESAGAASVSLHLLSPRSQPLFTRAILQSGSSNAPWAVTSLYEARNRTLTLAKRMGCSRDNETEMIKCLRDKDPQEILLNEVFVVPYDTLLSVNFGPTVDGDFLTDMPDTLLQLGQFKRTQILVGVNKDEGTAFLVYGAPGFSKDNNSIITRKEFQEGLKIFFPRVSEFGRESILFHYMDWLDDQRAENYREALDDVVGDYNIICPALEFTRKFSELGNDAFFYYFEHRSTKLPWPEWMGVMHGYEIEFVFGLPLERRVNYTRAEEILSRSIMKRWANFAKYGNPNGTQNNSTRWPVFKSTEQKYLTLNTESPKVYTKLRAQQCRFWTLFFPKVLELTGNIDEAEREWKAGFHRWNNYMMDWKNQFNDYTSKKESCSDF

Row | Compound | Activity [1] [%] | Activity [2] [%] | Activity [3] [%] | Papp [4] [nm/s] | Activity [5] [%] | Activity [6] [%] | Activity [7] | Activity [8] [%] | Activity [9] [%] | IC50 [10] [µM] | Activity [11] [%] | Activity [12] [%] | IC50 [13] [µM] | Activity [14] [%]
1 | CN(C)CCC(=O)NN1c2ccccc2Sc2cc(Cl)ccc21 | 20.1 | 8.4 | 21.4 | 88 | 44.4 | 0 | Non-toxic | 52.9 | 18.6 | > 100 | 6.5 | 18.9 | 0.7 | –
2 | CN1CCN(CC(=O)NN2c3ccccc3Sc3cc(Cl)ccc32)CC1 | 18.8 | 17.1 | – | – | 37.9 | 12.5 | Non-toxic | – | 18.4 | > 100 | – | – | 0.5 | –
3 | CC(=O)NN1c2ccccc2Sc2ccc(Cl)cc21 | 0 | 0 | – | – | 0 | 0 | Non-toxic | – | 0 | > 100 | – | – | > 100 | –
4 | NN1c2ccccc2Sc2ccccc21 | 0 | 6.7 | – | – | 0 | 0 | Non-toxic | – | 0 | > 100 | – | – | > 100 | –
5 | CC(=O)n1c2ccccc2sc2cccc(Cl)c2n1C(C)=O | 41 | 6.4 | 48.5 | 77 | 11.4 | 0 | Non-toxic | 38.9 | 13.2 | > 100 | – | 43.4 | > 100 | 0
6 | CN1CCN(NCCN2c3ccccc3Sc3ccccc32)CC1.Cl.Cl | 42.1 | 8.3 | 19.4 | 91 | 22.1 | 14.1 | Non-toxic | 22.6 | 36.9 | > 100 | – | 22.5 | 50 | 16.4
7 | Cc1c(C)c2c(c(C)c1O)CCC(C)(C(=O)O)O2 (configuration not stated) [TROLOX] | 64.2 | 0 | 52.9 | – | 57.7 | 0 | – | 39.3 | 55.7 | – | – | 43.2 | – | 60.3
